# Test results published in patent publication EP4721744A1, “PHARMACEUTICAL COMPOSITION COMPRISING CEPHALOSPORIN ANTIBACTERIAL COMPOUND” (Jiangsu Hengrui Pharmaceuticals Co., Ltd., priority 2023, dated 2024).
# What was measured:
# [1] = bulk compound; needs to be stored at or below -60°C; cited from earlier work
# [2] = Solubility test in different solvent systems; type: physicochemical
# Protocol: Different solvent systems were prepared to test the solubility of the compound as shown in formula (I). Table 1 Solubility test
# [3] = Purified water + 1 M NaOH solution for pH adjustment, 4.9 ml, charging amount 500.4 mg
# [4] = Purified water, 250 mL, charging amount 20.01 mg
smiles,measurement,setting,value
CC(C)(O/N=C(\C(=O)N[C@@H]1C(=O)N2C(C(=O)[O-])=C(C[N+]3(CCCN(CCCNC(=O)c4ccc(O)c(O)c4Cl)C(=O)c4ccc(O)c(O)c4Cl)CCCC3)CS[C@H]12)c1csc(N)n1)C(=O)O [compound as shown in formula (I)],stability,[1],extremely poor stability
same,Dissolution Status,"[2]; Hydrochloric acid (pH 1.0), 200 mL, charging amount 19.99 mg",Incomplete dissolution
same,Dissolution Status,[2]; [3],Complete dissolution
same,Solution pH after complete dissolution,[2]; [3],5.08
same,Dissolution Status,"[2]; Purified water, 20 mL, charging amount 20.01 mg",Incomplete dissolution
same,Dissolution Status,[2]; [4],Complete dissolution
same,Solution pH after complete dissolution,[2]; [4],3.6
same,solubility,"[2]; Purified water, 250 mL, solution pH 3.6",< 1 mg/mL
same,solubility,"[2]; purified water adjusted with 1 M NaOH solution, aqueous buffer, Purified water + 1 M NaOH solution for pH adjustment, 4.9 ml, solution pH 5.08",≥ 100 mg/mL
